These results are taken from US7595345B2, “Vitamin D receptor modulators” (Eli Lilly and Company, priority 2003, dated 2009).

For series [1], the target named is T1, RXR-VDR heterodimer (Gal4-RXR-DEF and VP16-VDR-LBD) (Homo sapiens, UniProt P11473).
T1 construct: Add the Gal4-RXR-DEF and VP16-VDR-LBD; expressed in transfected cells; host or cells: SaOs-2 cells
T1 sequence (P11473 127-423 limits assumed): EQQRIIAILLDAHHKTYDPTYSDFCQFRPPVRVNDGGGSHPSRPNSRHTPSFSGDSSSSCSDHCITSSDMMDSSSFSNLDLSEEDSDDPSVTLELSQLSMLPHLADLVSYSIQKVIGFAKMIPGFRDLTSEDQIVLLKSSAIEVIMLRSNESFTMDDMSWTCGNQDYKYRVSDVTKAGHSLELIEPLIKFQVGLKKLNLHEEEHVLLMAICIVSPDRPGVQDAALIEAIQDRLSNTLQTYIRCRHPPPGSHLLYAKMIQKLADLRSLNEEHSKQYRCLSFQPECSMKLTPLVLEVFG
T1 sequence (P19793 201-462 partner limits assumed): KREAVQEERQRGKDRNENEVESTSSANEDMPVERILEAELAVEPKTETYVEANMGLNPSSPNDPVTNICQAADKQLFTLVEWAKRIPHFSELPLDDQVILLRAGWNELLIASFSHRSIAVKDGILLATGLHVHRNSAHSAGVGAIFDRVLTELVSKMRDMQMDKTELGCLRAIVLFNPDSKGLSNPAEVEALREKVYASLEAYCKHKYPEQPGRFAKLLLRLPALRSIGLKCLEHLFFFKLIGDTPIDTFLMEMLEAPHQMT
Put plainly: RXR-VDR heterodimerization assay (SaOS-2 cells). In kind it is cell-based. As to conditions: luciferase reporter pFR-LUC. From the text: 1. The RXR-VDR Heterodimer Assay:
This assay provides the VDR activity of a test compound.
This is an in vitro efficacy assay for psoriasis, abscess and adhesion. Psoriasis involves both keratinocytes and immune cells. IL-10 is a unique cytokine because it is anti-inflammatory and immunosuppressive. This assay tells us whether a VDRM is able to function as an agonist in PBMCs (primary blood mononuclear cells) or not. […] 7. Other Compound Assay Standards An alternative measure of the efficacy of compounds of the invention for treatment of osteoporosis is a numerical ratio calculated as follows: • Dose Threshold needed to induce hypercalcemia • divided by • Dose Threshold needed for bone efficacy An alternative measure of the efficacy of compounds of the invention for treatment of psoriasis is a numerical ratio calculated as follows: • Dose Threshold needed to induce hypercalcemia • divided by • Dose Threshold needed to induce keratinocyte proliferation For the above ratios, Dose Thresholds are determined from dose response curve data. 8. The CaT1 (Calcium Transport Protein 1) Assay The CaT1 Assay is an indicator for the undesirable condition of hypercalcemia. […] Preferred assay results are greater than 1000 nM. Details of the Assay Methods: (1) Materials and Method for RXR-VDR Heterodimerization Assay: Transfection Method:
Grow SaOs-2 cells in T-152 cm^2 culture flasks in growth media.
Keep the density at 5-6×10^5 cells/ml
Passage cells 1:3 twice a week
Resuspend cells in plating media and transfer into growth media.
Transfection/Treatment Media:
D-MEM Low Glucose Without Phenol Red only
T-152 cm^2 culture flask:
Use well plate to plate cells
Use Deep well plate sterile to make up treatment media.
Luciferase Assay Reagent:
Use Steady-Glo Luciferase Reagent from Promega (Cat #E2550) Consists of:
a. E2533 Assay Substrate, lyophilized product and
Aspirate media from culture flask, rinse cells with HBSS and aspirate.
Add trypsin and incubate. […]
Read the plates after drug treatment […]
Count each well using a Luminescence counter, Top Count NXT by Packard […]

The target in a further series is T2, VDR (pGal4-VDR-LBD) (Homo sapiens, UniProt P11473).
T2 construct: the receptor expression vector pGal4-VDR-LBD (10 ng); expressed in transfected cells; host or cells: Caco-2 cells
T2 sequence (P11473 127-423 limits assumed): T1 sequence (P11473 127-423 limits assumed)
Put plainly: VDR CTF (Caco-2 cell co-transfection assay). It counts as cell-based. As to conditions: Caco-2 cells, Gal4-responsive reporter pFRLuc; surrogate for calcemic activity. The procedure:
2. The Caco-2 Cell Co-Transfection Assay:
The Caco-2 cell assay is an indicator for the undesirable condition of hypercalcemia. This co-transfection assay is a surrogate assay for in vivo calcemic activity of VDR ligands. […] Preferred assay results are greater than 1000 nM.
(2) Materials and Method for the Caco-2 Cell Assay:
Caco-2 cells, grown in phenol red free, DMEM (Invitrogen, Carlsbad, Calif.) containing 10% charcoal-stripped FCS (Hyclone, Logan, Utah), were transfected with Fugene 6 reagent (Roche Diagnostics, Indianapolis, Ind.). Cells (5000/well) were plated 18 h before transfection in a 96 well plate. The Cells were transfected with Gal4-responsive reporter pFRLuc (150 ng, Stratagene, La Jolla Calif.) and the receptor expression vector pGal4-VDR-LBD (10 ng), along with Fugene 6 reagent (0.2 μl/well). The DNA-Fugene complex was formed by incubating the mixture for 30 min at room temperature. The cells were transfected in triplicate for 5 h, and treated with various concentrations of VDR ligands (form 0.01 nM to 10,000 nM concentration range) 18 h post-transfection. The luciferase activity was quantified using Steady-Glo reagent kit (Promega, Madison, Wis.) as per manufacturer's specifications.

The next series deals with rat osteocalcin promoter. The series is described as follows: OCN (osteocalcin) promoter assay. It counts as cell-based. As to conditions: Rattus norvegicus, 48 h, RG-15 (ROS 17/2.8) cells, 48 hr treatment, luciferase. As for the experimental part: 3. The OCN (Osteocalcin) Promoter Assay
The OCN Promoter Assay is an indicator and marker for osteoporosis. Desired assay results are EC50 less than or equal to […]. Preferred assay results are less than […].
(3) Materials and Method for the OCN Promoter Assay:
The activation of osteocalcin by VDR ligands was evaluated in a rat osteoblast-like cell line RG-15 (ROS 17/2.8) stably expressing rat osteocalcin promoter fused with luciferase reporter gene. The stable cell lines were established as reported before (Activation of Osteocalcin Transcription involves interaction of protein kinase A- and Protein kinase C-dependent pathways. Boguslawski, G., Hale, L. V., Yu, X.-P., Miles, R. R., Onyia, J. E., Santerre R. F., Chandrasekhar, S. J. Biol. Chem. 275, 999-1006, 2000). Confluent RG-15 cells maintained in DMEM/F-12 medium (3:1) containing 5% FBS, 300 µg/ml G418 and at 37° C. under 5% CO2/95% air atmosphere were trypsinized (0.25% trypsin) and plated into white opaque 96-well cell culture plates (25000 cells/well). After 24 hr, cells (in DMEM/F-12 medium+2% FBS) were treated with various concentrations of compounds, dissolved in DMSO. The final DMSO concentration remained at 0.01% (v/v). After 48 hr treatment, the medium was removed, cells were lysed with 50 µl of lysis buffer (From Luciferase reporter assay system, Roche Diagnostics, Indianapolis, Ind.) and assayed for luciferase activity using the Luciferase Reporter Gene Assay kit from Boehringer Mannheim as per manufacturer's specifications.

A short description of series [2]: Mouse hypercalcemia assay. It counts as in vivo. As to conditions: female DBF mice, oral gavage for 6 days, serum ionized calcium 6 hours after last dosing. The text has this: 4. The Mouse Hypercalcemia Assay
(4) Materials and Method for the Mouse Hypercalcemia Assay: […]

For the compound `CCC(CC)(c1ccc(C#CC2(O)CCCC2)c(C)c1)c1ccc(C(=O)NC(C)(C)C(=O)O)c(C)c1` [Ex. 1, 2-(4-{1-Ethyl-1-[4-(1-hydroxy-cyclopentylethynyl)-3-methyl-phenyl]-propyl}-2-methyl-benzoylamino)-2-methyl-propionic acid], the results for the concentration giving a half-maximal response (EC50) (in series [1]; on VDR (pGal4-VDR-LBD); in the series with rat osteocalcin promoter) were 68.6 nM, 471 nM and 0.96 nM, respectively. In series [2], the “Mouse Hypercal” value was 3000 µg/kg/day.
